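Growth conditions: 96-well plates. Treatment: test compound, 48 hours, 5 concentrations. Analysis: linear interpolation between bracketing concentrations; unreached endpoints set to highest concentration. GI50 is the concentration that inhibits growth by half. TGI: total growth inhibition.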
Legend:
Assay in all cases: NCI tumour cell line growth inhibition, 48 h
CAKI-1 renal = tested on: CAKI-1 renal
MDA-MB-231 breast = tested on: MDA-MB-231 breast
786-0 renal = tested on: 786-0 renal
HL-60(TB) leukemia = tested on: HL-60(TB) leukemia
LOX IMVI melanoma = tested on: LOX IMVI melanoma
COLO 205 colon = tested on: COLO 205 colon
HOP-92 NSCLC = tested on: HOP-92 NSCLC
UACC-257 melanoma = tested on: UACC-257 melanoma
SF-539 CNS = tested on: SF-539 CNS
A498 renal = tested on: A498 renal

Compound | TGI (CAKI-1 renal) | TGI (MDA-MB-231 breast) | TGI (786-0 renal) | TGI (HL-60(TB) leukemia) | TGI (LOX IMVI melanoma) | TGI (COLO 205 colon) | TGI (HOP-92 NSCLC) | TGI (UACC-257 melanoma) | TGI (SF-539 CNS) | TGI (A498 renal) | GI50 (CAKI-1 renal) | GI50 (MDA-MB-231 breast) | GI50 (786-0 renal) | GI50 (HL-60(TB) leukemia) | GI50 (LOX IMVI melanoma) | GI50 (COLO 205 colon) | GI50 (HOP-92 NSCLC) | GI50 (UACC-257 melanoma) | GI50 (SF-539 CNS) | GI50 (A498 renal)
CC(=O)Oc1ccc2ccc(=O)oc2c1OC(C)=O | > 100 µM | > 100 µM | > 100 µM | 38.1 µM | > 100 µM | 63.1 µM | > 100 µM | > 100 µM | > 100 µM | > 100 µM | – | – | – | – | – | – | – | – | – | –
CN(CCCCCl)P(=O)(OCc1ccc([N+](=O)[O-])o1)C(F)(F)c1ccc(CC(=O)N[C@@H](CC(=O)O)C(=O)N[C@@H](Cc2ccc(C(F)(F)P(=O)(OCc3ccc([N+](=O)[O-])o3)N(C)CCCCCl)cc2)C(N)=O)cc1 (stereo not given in full) | > 100 µM | > 100 µM | > 100 µM | 64.5 µM | > 100 µM | > 100 µM | 52.3 µM | > 100 µM | 99.8 µM | 87.5 µM | > 100 µM | 39.6 µM | > 100 µM | 28 µM | 28.2 µM | 41 µM | 22.5 µM | > 100 µM | 31 µM | 33 µM
Nc1ccccc1/C=N\Nc1ccccc1 | > 100 µM | > 100 µM | > 100 µM | 29.3 µM | > 100 µM | > 100 µM | > 100 µM | > 100 µM | 7.04 µM | > 100 µM | 1.02 µM | 8.23 µM | 2.69 µM | 1.78 µM | 1.29 µM | 25.2 µM | 6.27 µM | 51.5 µM | 1.27 µM | > 100 µM
O=C(CCc1nnc(-c2c(Cl)cccc2Cl)o1)c1nc2ccccc2[nH]1 | 41.1 µM | 42.6 µM | 45.5 µM | 19.3 µM | 39.8 µM | 7.08 µM | 15.8 µM | 44.4 µM | 39.6 µM | 10.1 µM | 3.49 µM | 2.68 µM | 10.7 µM | 2.23 µM | 4.03 µM | 2.66 µM | 1.77 µM | 13.7 µM | 10.5 µM | 1.53 µM
CC1(C)CC(=O)C(C(c2cccc(O)c2O)C2C(=O)CC(C)(C)CC2=O)C(=O)C1 | > 100 µM | > 100 µM | > 100 µM | > 100 µM | > 100 µM | > 100 µM | > 100 µM | > 100 µM | > 100 µM | > 100 µM | – | – | – | – | – | – | – | – | – | –
C[N+](C)(C)CCC(=O)N1C/C(=C\c2ccccc2)C(=O)/C(=C/c2ccccc2)C1 | 18.2 µM | 9.82 µM | 5.46 µM | 9.44 µM | 3.46 µM | 13.4 µM | 38.7 µM | 28.2 µM | 11.8 µM | 35.3 µM | – | – | – | – | – | – | – | – | – | –
C/C(=N\Nc1ccc2ccccc2n1)c1ccccc1O | > 100 µM | > 100 µM | > 100 µM | > 100 µM | > 100 µM | > 100 µM | > 100 µM | > 100 µM | > 100 µM | > 100 µM | – | – | – | – | – | – | – | – | – | –
Cc1ccc(Cl)cc1Nc1nc(C(F)(F)F)ccc1C(=O)N/N=C/c1c(Cl)cccc1Cl | 3.49 µM | 2.85 µM | 1.38 µM | 3.36 µM | 5.15 µM | 1.72 µM | 6.92 µM | 7.69 µM | 5.05 µM | 5.61 µM | 0.495 µM | 0.524 µM | 0.588 µM | 0.863 µM | 0.648 µM | 0.395 µM | 1.14 µM | 2.49 µM | 1.62 µM | 0.929 µM
CC1(C)Cc2cccc(OCC(O)CN3CCN(c4ccc(F)cc4)CC3)c2O1 (stereo not given) | 37.7 µM | 36 µM | 15.7 µM | > 50 µM | > 50 µM | 26.9 µM | 31.4 µM | 16.9 µM | 27.3 µM | 35.1 µM | 15.8 µM | 8.58 µM | 5.66 µM | 16.4 µM | 23.8 µM | 11.1 µM | 8.15 µM | 6.34 µM | 13 µM | 14 µM
O=C(CCCCCCC(=O)N/N=C/c1ccc(N(c2ccccc2)c2ccccc2)cc1)NO | 1.24 µM | 12.2 µM | 3.7 µM | 7.57 µM | 1.61 µM | 4.63 µM | 4.25 µM | 1.57 µM | 4.95 µM | 1.62 µM | 0.201 µM | 3.37 µM | 1.58 µM | 2.64 µM | 0.432 µM | 2.02 µM | 1.67 µM | 0.39 µM | 2.17 µM | 0.357 µM
O=C(c1ccccn1)c1nnn2ccccc12 | > 100 µM | > 100 µM | > 100 µM | > 100 µM | > 100 µM | > 100 µM | > 100 µM | > 100 µM | > 100 µM | > 100 µM | – | – | – | – | – | – | – | – | – | –
CCCN(CCC)c1ccc(C=O)cc1 | > 100 µM | > 100 µM | > 100 µM | > 84 µM | > 100 µM | > 100 µM | 66.2 µM | 98.2 µM | > 100 µM | 4.15 µM | 53.2 µM | > 100 µM | 81 µM | 27 µM | 59.6 µM | > 77.6 µM | 13 µM | 35 µM | > 100 µM | 1.81 µM
CCOC(=O)c1c[nH]c2c(OCc3ccccc3)c3ccccc3c(O)c2c1=O | 21.1 µM | 60.8 µM | 57.4 µM | > 100 µM | 33 µM | > 100 µM | 93.5 µM | 6.63 µM | 11.2 µM | > 78.1 µM | 4.37 µM | 15.2 µM | 18.6 µM | 40.7 µM | 6.83 µM | 47 µM | 27 µM | 2.52 µM | 2.53 µM | 27.3 µM
Nc1ncnc2c1c(-c1cccc(OCc3ccccc3)c1)cn2C1CC(CN2CCCC2)C1 (stereo not given) | 9.27 µM | 4.54 µM | 3.34 µM | 3.03 µM | 3 µM | 1.47 µM | 0.867 µM | 2.18 µM | 3.02 µM | 4.66 µM | 2.08 µM | 1.88 µM | 1.72 µM | 0.426 µM | 1.52 µM | 0.331 µM | 0.0749 µM | 0.867 µM | 1.6 µM | 1.72 µM
O=C1Nc2ccccc2C1(c1ccc(O)c(F)c1)c1ccc(O)c(F)c1 | 55.4 µM | 35.5 µM | 44.1 µM | 42.6 µM | 15.8 µM | 1.98 µM | 16.6 µM | 67.5 µM | 36.8 µM | 27.4 µM | 17.6 µM | 13.4 µM | 18.8 µM | 15 µM | 0.53 µM | 0.297 µM | 2.36 µM | 24.6 µM | 12.6 µM | 11.1 µM
